Measured values taken from patent US20130245064A1, “NOVEL NEUROTRYPSIN INHIBITORS” (priority 2010, published 2013).
Like-named read-outs stand apart in the source and are kept apart here.

Tests used:
[1] = biological target: T1, human neurotrypsin (Homo sapiens, UniProt P56730); test: Determination of IC50 for human neurotrypsin; assay type: biochemical
T1 sequence (P56730 21-875): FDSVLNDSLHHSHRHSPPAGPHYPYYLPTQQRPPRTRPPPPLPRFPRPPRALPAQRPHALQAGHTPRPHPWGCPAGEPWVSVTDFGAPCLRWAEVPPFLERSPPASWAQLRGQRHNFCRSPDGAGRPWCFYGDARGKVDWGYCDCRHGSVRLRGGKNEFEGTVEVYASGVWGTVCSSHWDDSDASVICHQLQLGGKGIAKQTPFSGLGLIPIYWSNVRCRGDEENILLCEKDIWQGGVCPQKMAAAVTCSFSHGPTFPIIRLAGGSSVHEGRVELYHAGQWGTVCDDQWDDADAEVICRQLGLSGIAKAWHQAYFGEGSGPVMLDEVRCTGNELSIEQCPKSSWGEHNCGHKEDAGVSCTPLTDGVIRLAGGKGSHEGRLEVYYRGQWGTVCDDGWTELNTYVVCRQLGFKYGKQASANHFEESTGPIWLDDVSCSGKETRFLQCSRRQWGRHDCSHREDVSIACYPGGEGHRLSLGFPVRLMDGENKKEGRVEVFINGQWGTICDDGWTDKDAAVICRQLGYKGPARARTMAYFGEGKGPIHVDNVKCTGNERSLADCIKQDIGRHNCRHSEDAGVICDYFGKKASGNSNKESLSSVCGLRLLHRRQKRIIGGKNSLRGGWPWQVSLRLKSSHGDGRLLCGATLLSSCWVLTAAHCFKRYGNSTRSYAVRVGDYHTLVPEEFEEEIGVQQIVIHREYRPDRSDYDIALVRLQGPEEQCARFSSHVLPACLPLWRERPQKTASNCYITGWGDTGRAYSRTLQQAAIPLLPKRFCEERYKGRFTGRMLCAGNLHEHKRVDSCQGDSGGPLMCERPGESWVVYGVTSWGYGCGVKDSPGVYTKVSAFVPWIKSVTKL
Procedure: Determination of IC50 for Human Neurotrypsin
Assessment of the potency of compounds of examples 1-14 in inhibiting the enzymatic activity of human neurotrypsin was performed according to the method described in patent application […]

[2] = biological target: T2, Plasmin (Homo sapiens, UniProt P00747); test: Determination of IC50 for various proteases: plasmin; assay type: biochemical; conditions: plasmin 8 nM, substrate S-2288 0.5 mM; Mean ± SD
T2 construct: purchased American diagnostic
Procedure: A 6 mM solution of the test compound in DMSO was prepared. In a V-bottom micro plate the 6 mM compound solution was diluted 6 times in DMSO to obtain a concentration row with the following concentrations: 6 mM, 1.8 mM, 540 μM, 162 μM, 48.8 μM, 14.4 μM, and 4 μM. From this DMSO master plate 1:20 dilutions in 10 mM MOPS pH 8.3 were prepared to obtain solutions of 300, 90, 27, 8.1, 2.44, 0.72 and 0.22 μM in MOPS buffer and 5% DMSO.
100 μl of this solution were pipetted into a flat bottom 96 well microplate and placed into a Tecan infinite 200 plate reader. Before measurement, 50 μl of protease solution and, subsequently 50 μl substrate solution were added by the machine. The liberation of free para nitroanilide was detected at 405 nm. The protease solution was freshly prepared by diluting to the desired concentration from a stock solution in 60 mM MOPS; 600 mM NaCl; 20 mM CaCl2; 10% DMSO; 0.4% PEG 6000 pH 8.3. The substrate solution was prepared by dissolving the solid substrate in an adequate amount of water to get the desired concentrations. The used protease and substrate solutions are given below:
All enzymes except trypsin were from human origin (American diagnostic). Trypsin was hog trypsin (Sigma Aldrich). Substrates were purchased from Chromogenix. […]

T2 sequence (P00747 581-810 limits assumed): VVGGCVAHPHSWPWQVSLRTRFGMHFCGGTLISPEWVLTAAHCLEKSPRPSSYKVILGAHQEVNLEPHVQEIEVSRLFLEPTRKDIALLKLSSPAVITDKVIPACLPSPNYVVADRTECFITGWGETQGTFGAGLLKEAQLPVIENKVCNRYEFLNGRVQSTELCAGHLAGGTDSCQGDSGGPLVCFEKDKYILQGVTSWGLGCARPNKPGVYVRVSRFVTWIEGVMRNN
T2 sequence (P00747 97-580 partner limits assumed): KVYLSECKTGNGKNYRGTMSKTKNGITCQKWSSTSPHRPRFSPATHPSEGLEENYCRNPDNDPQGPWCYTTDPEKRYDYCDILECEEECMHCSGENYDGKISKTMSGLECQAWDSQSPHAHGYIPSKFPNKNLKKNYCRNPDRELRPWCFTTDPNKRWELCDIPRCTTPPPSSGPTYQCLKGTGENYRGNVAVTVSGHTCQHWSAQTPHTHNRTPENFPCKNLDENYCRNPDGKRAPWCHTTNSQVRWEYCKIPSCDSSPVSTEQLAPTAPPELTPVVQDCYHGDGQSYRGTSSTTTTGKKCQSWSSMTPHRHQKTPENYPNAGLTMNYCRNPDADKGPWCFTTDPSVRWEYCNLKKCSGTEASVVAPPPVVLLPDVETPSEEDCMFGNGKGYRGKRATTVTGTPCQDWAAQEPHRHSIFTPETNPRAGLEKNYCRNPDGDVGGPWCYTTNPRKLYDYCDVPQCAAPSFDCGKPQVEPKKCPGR

O=C(Nc1ccc(C(=O)Nc2ccc(Cl)cc2)c(O)c1)c1ccc(-c2nc3cc(Cl)c(Cl)cc3[nH]2)cc1 [Example 1, N-(4-Chlorophenyl)-4-(4-(5,6-dichloro-1H-benzo[d]imidazol-2-yl)benzamido)-2-hydroxybenzamide]
melting point: > 220 °C | IC50 ([1]; Mean ± SD, read-out: IC50 Neurotrypsin): 470 ± 150 nM | IC50 ([1]; table of all 14 examples, read-out: Neurotrypsin IC50): 400 nM | IC50 [2]: > 150000 nM
